For assay [1], the system named is Th1 cells. The assay is described as follows: CD4 T cells in Th1 skewing conditions, flow cytometry. In general terms: Flow cytometry measures light scatter and fluorescence of single cells or particles in a stream.
Assay [2] has as its system Th17 cells. As to the kind of experiment: CD4 T cells in Th17 skewing conditions, flow cytometry.
The test system of assay [3] is stimulated T cells. As to the kind of experiment: Oxygen Consumption Rate (Seahorse) of stimulated CD4 T cells. The class given is cell-based, mouse. The following applies: CD4 cells stimulated on CD3/CD28; 1 μM CB839, 5 μM UK5099 injected separately or in combination. Here is the method: Experiments were carried out on Agilent Seahorse XF96 bioanalyzer (Agilent). Briefly, wild type CD4+ cells were isolated as previous and activated for 3 days on CD3/CD28 as previously described, or skewed to Th1 and Th17 subsets as described above. T cells were spun onto XF96 Cell-Tak (BD Bioscience, Cat #: 354240) coated plates and rested in Seahorse XF RPMI 1640 media supplemented with glutamine, sodium pyruvate, and glucose. For immediate metabolic response, CB839 and UK5099 were injected separately or in combination, and OCR and ECAR measured.
Experiments were carried out on Agilent Seahorse XF96 bioanalyzer (Agilent). Briefly, wild type CD4+ cells were isolated as previous and activated for 3 days on αCD3/CD28 coated plates as previously described, or skewed to Th1 and Th17 subsets as described above. T cells were isolated and spun onto XF96 Cell-Tak (BD Bioscience, Cat #: 354240) coated plates and rested in Seahorse XF RPMI 1640 media supplemented with glutamine, sodium pyruvate, and glucose. For immediate metabolic response, 1 μM CB839 and 5 μM UK5099 (Cat #: PZ0160-5MG) were injected separately or in combination, and OCR and ECAR measured. For activation response, 1 uM CB839 was injected into IL-7 maintained naïve CD4+ T cells in seahorse medium and allowed to incubate for 20 minutes, followed by soluble αCD3/CD28 injection.

The subject of assay [4] is cGVHD mice. As to the kind of experiment: In vivo chronic graft versus host disease (cGVHD) treatment. Also on record: species or system mouse. The following applies: treatment Day 28-56 after transplant; for pulmonary function: DON 1.6 mg/kg EOD IP, metformin 150 mg/kg daily IP. Here is the method: Induction of Graft vs Host Disease (cGVHD) was performed as described elsewhere (see, e.g., Panoskaltsis-Mortari et al., 2007 Am J Respir Crit Care Med. 176(7):713-723). Briefly, mice were lethally irradiated the day before bone marrow (BM) transplant. Mice were dosed with cyclophosphamide (Cytoxan, Bristol Myers Squibb, Seattle Wash.) at 120 mg/kg/day on days −3 and −2. Recipient irradiated mice were transplanted via caudal vein with 10×10^6 T-cell depleted allogeneic marrow with 73.5×10^3 purified splenic T cells from WT or GLS KO mice, or control (no CD4+ T cells). Mice were assessed for lung elasticity, resistance, and compliance at Day 28 by whole body plethysmography using the Flexivent system (Scireq, Montreal, PQ, Canada). Histological assessment of GVHD was assessed as described elsewhere (see, e.g., Blazar et al., 1998 Blood 92(10):3949-3959).
6-Diazo-5-Oxo-L-Norleucine (DON) was administered to mice conditioned with cyclophosphamide (Cytoxan, Bristol Myers Squibb, Seattle Wash.) and total body irradiation.
To determine if inhibiting GLS can improve cGVHD, DON (with or without metformin) was administered to mice that were transplanted with WT T cell depleted bone marrow with WT purified splenic T cells beginning on day 28 after transplant.

[5] abbreviates: Th1, CB839 + 1.5 mM cell-permeable α-KG analog.
Setting [6] is: Th17, CB839 + cell-permeable α-KG analog.

Structures are written as SMILES. Entries after “also recorded” stand apart in the source; their conditions may differ.

This is an account of results in patent US20190269705A1, “METHODS AND MATERIALS FOR TREATING GRAFT VERSUS HOST DISEASE” (Regents of the University of Minnesota, priority 2017, published 2019).

For `CO[C@H]1C[C@@H]2CC[C@@H](C)[C@@](O)(O2)C(=O)C(=O)N2CCCC[C@H]2C(=O)O[C@H]([C@H](C)C[C@@H]2CC[C@@H](O)[C@H](OC)C2)CC(=O)[C@H](C)/C=C(\C)[C@@H](O)[C@@H](OC)C(=O)[C@H](C)C[C@H](C)/C=C/C=C/C=C/1C` [rapamycin], the “effect on control Th1 cells” value in assay [1] (rapamycin added on day 3 after activation) was “no effect”.
In the case of `COC(=O)CCC(=O)C(=O)OC` [DMaKG, dimethyl-2-oxoglutarate], in assay [1] (setting [5]), the “IFNγ production of CB839-treated Th1 cells” value is “rectified” and the “Tbet expression of CB839-treated Th1 cells” value is recorded as “rectified”. In assay [1] (Th1, CB839 + 1.5 mM cell-permeable α-KG analog, listed as DM2OG), the “IFNγ production of CB839-treated Th1 cells” value was “reduced IFNγ production of CB839-treated to control levels”. The “cytokine production in Th1 cells, by itself” value in assay [1] (Th1, α-KG analog alone) was “did not reduce cytokine production”. Further, in assay [2] (setting [6]), the “IL17 production of CB839-treated Th17 cells” value was “unchanged or further decreased” and the “RORγt of CB839-treated Th17 cells” value is “unchanged or further decreased”.
Turning to `N#C/C(=C\c1cn(-c2ccccc2)c2ccccc12)C(=O)O` [UK5099], in assay [3], the “oxygen consumption (T cell respiration)” value was “neither UK5099 nor CB839 were sufficient on their own to reduce T cell respiration; also recorded: neither UK5099 nor CB839 were sufficient to reduce T cell respiration alone”.
For `CC(=O)N[C@@H](CS)C(=O)O` [NAC, N-acetyl cysteine], in assay [1] (Th1, NAC alone), the IFNγ secretion entry is “decreasing IFNγ secretion”. Also, in assay [1] (Th1, NAC combined with CB839), the “production of IFNγ” value was “did not, however, increase”. The H3K27 trimethylation result in assay [1] (Th1 cells + NAC) was “no effect”; in assay [2] (GLS-deficient (CB839) Th17 cells + NAC), “restored”. Also, in assay [2] (Th17, NAC alone), the “expression of IL17” value is “modestly reduced”. The “expression of RORγt” value in assay [2] (Th17, NAC alone) is given as “modestly reduced”; in assay [2] (Th17, NAC combined with CB839), “partially restored to control levels”. Further, the “production of IL17” value in assay [2] (Th17, NAC combined with CB839) is “partially restored to control levels”.
On to `CN(C)C(=N)N=C(N)N` [metformin], for which, in assay [4], the pulmonary function result is on record as “improved pulmonary function”.
Consider `CCOC(=O)CCNc1cc(N2CCc3ccccc3CC2)nc(-c2ccccn2)n1` [GSKJ4], for which the cytokine production entry is on record as “increased cytokine production” in assay [1] (Th1, day five, JMJD3 inhibitor) and “increased cytokine production in Th1 but not Th17 cells” in assay [2] (Th17, day five, JMJD3 inhibitor).
Take `[N-]=[N+]=CC(=O)CC[C@H](N)C(=O)O` [DON, 6-Diazo-5-Oxo-L-Norleucine]: in assay [4], the “GC B cell frequency” value is on record as “decreased GC B cell frequency; also recorded: decrease GC B cell frequencies; also recorded: reduced GC B cells”, the TFH frequency result is “increased TFH frequency”, the TFR frequencies entry was “increased TFR frequencies” and the “TFR:TFH ratios” value is listed as “improved TFR:TFH ratios”. Also, in assay [4], the percentage of lymphocytes result is listed as “reduced the percentage of lymphocytes; also recorded: reduces lymphocytes” and the pulmonary function result is given as “improve pulmonary functions”.
